Measured values: patent US20250092065A1, “2-(INDAZOL-5-YL)-6-(PIPERIDIN-4-YL)-1,7-NAPHTHYRIDINE DERIVATIVES AND RELATED COMPOUNDS AS MODULATORS FOR SPLICING NUCLEIC ACIDS AND FOR THE TREATMENT OF PROLIFERATIVE DISEASES” (REMIX THERAPEUTICS INC., priority 2022, published 2025)
pIC50: −log10 of the molar value. Like-named read-outs stand apart in the source and are kept apart here.

Experiments:
HTT mRNA = assay: RT-qPCR splicing assay, HTT mRNA canonical (CJ) and alternative (AJ) junction; format: cell-based, human; settings: Homo sapiens; for AC50: HTT alternative junction mRNA, read-out: HTT AJ (increase in AJ mRNA, AC50)
In short: (§1)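 Junction-specific RT-qPCR read-out: CJ and AJ isoform levels, housekeeper-normalized (GAPDH/GUSB/PPIA), ΔΔCt vs DMSO, converted to RQ then % response. Cells: A673 (DMEM/10% FBS, adhered 24 h) or K562 (IMDM/10% FBS). Compound 11-pt 3-fold, top 10 uM, 24 h, 37 °C.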

MYB mRNA = assay: RT-qPCR splicing assay, MYB mRNA canonical (CJ) and alternative (AJ) junction; format: cell-based, human; settings: Homo sapiens; for AC50: MYB alternative junction mRNA, read-out: MYB AJ (increase in AJ mRNA, AC50)
In short: as §1

SMN2 mRNA = assay: RT-qPCR splicing assay, SMN2 mRNA; format: cell-based, human; settings: Homo sapiens, canonical junction qPCR panel, Table 4; read-out: SMN2 IC50 (decrease in CJ mRNA levels)
In short: as §1

MYB = assay: HiBiT protein abundance assay, MYB (K562 HiBiT knock-in); format: cell-based, human; settings: HiBiT knock-in K562 cells, 24 hours, top dose 10 μM
Method: (§2) Compounds described herein were used to screen for effects on quantitative protein abundance using a HiBit assay system (Promega). Quantitative protein abundance was determined by measuring the protein levels of HiBit-tagged protein targets expressed in cell culture via luminescence using the Nano-Glo HiBiT Lytic Detection System, which uses a split complementation assay format to reconstitute NanoBiT enzyme to generate a luminescent signal. A protein abundance assay was developed such that endogenous protein targets could be modified with the HiBiT peptide tag and their abundance could be assessed after compound treatment. Briefly, K562 cell lines containing a HiBiT-modification were treated with various compounds described herein (e.g., compounds of Formulas (I), or (II)). After treatment for 24 hours, the protein abundance of a specific target was determined by measuring luminescence.
(§3) Cells were maintained in IMIDM with 10% FBS. Before the assay, cells were diluted with […] growth media (IMIDM+[…] media) and were seeded in a 384-well plate at a density of 10000 cells/well (for each cell line listed in Table 6). Each compound was prepared as a 10-point 3-fold serial dilution in DMSO with the top dose at a final concentration of 10 μM in the well. Unmodified K562 cells were added at the previously specified density with DMSO to serve as an assay baseline and positive control (PC) and DMSO only with the respective modified cell lines was added to the negative control (NC) columns. Final DMSO concentration was kept at or below 0.25%. Treated cell plates were placed in an incubator at 37° C. with […] for 24 hours. After 24 hours, 25 μL of Complete HiBit Lytic reagent was added to each well at room temperature (e.g. one plate requiring 10 mL Lytic Buffer, 100 μL LgBiT Protein, 200 μL Lytic Substrate), shaken for 5 minutes at 600 RPM, then left to sit for 10 minutes for signal to stabilize before reading on a Spark Cyto plate reader (Tecan) with a 500 ms measurement time.
(§4) To determine compound effects on protein abundance of each target in Table 6, the percent response for each respective cell line was calculated at each compound concentration as follows:
(§5) % response=100*(S−PC)(NC−PC)
(§6) For the normalized response at each concentration, a four-parameter logistical regression was fit to the data and the response was interpolated at the […] to determine a concentration for protein abundance at 50% (IC50) the untreated control.

HTT = assay: HiBiT protein abundance assay, HTT (K562 HiBiT knock-in); format: cell-based, human; settings: HiBiT knock-in K562 cells, 24 hours, top dose 10 μM
Method: as §2, §3, §4, §5, §6

Target C = assay: HiBiT protein abundance assay, Target C (K562 HiBiT knock-in); format: cell-based, human; settings: HiBiT knock-in K562 cells, 24 hours, top dose 10 μM
Method: as §3, §4, §5, §6

K562 cells = assay: Cell Titer Glo 2.0 cell viability (toxicity) assay, K562; settings: 500 cells/well, 72 hours
[1] = HTT canonical junction mRNA, RT-qPCR, read-out: HTT CJ (decrease in CJ mRNA levels, IC50)
[2] = canonical junction qPCR panel, Table 4, read-out: HTT IC50 (decrease in CJ mRNA levels)
[3] = MYB canonical junction mRNA, RT-qPCR, read-out: MYB CJ (decrease in CJ mRNA levels, IC50)
[4] = canonical junction qPCR panel, Table 4, read-out: MYB IC50 (decrease in CJ mRNA levels)

| SMILES | AC50 (HTT mRNA; RT-qPCR) | pIC50 (HTT mRNA; [1]) | pIC50 (HTT mRNA; [2]) | AC50 (MYB mRNA; RT-qPCR) | pIC50 (MYB mRNA; [3]) | pIC50 (MYB mRNA; [4]) | pIC50 (SMN2 mRNA) | pIC50 (MYB) | pIC50 (HTT) | pIC50 (Target C) | Effect of Exemplary Compounds on Cell Viability, K562 (K562 cells) |
| --- | --- | --- | --- | --- | --- | --- | --- | --- | --- | --- | --- |
| Cn1cc2c(O)c(-c3cc4ccc(C5CCNCC5)nc4cn3)ccc2n1 [Compound 106] | 1000 to 10000 nM | 5.00 to 6.00 | 5.00 to 6.00 | 100 to 1000 nM | 5.00 to 6.00 | 5.00 to 6.00 | 6.00 to 7.00 | 5.00 to 6.00 | 5.00 to 6.00 | 5.00 to 6.00 | B (B represents 100-1000 nM) |
| Cn1cc2cc(-c3ncc4nc(C5CCNCC5)ccc4n3)c(O)cc2n1 [Compound 107] | 100 to 1000 nM | 6.00 to 7.00 | 6.00 to 7.00 | 100 to 1000 nM | 6.00 to 7.00 | 6.00 to 7.00 | > 7.00 | 6.00 to 7.00 | 6.00 to 7.00 | 6.00 to 7.00 | B (B represents 100-1000 nM) |
| Cn1cc2c(O)c(-c3ncc4nc(C5CCNCC5)ccc4n3)ccc2n1 [Compound 108] | 1000 to 10000 nM | 5.00 to 6.00 | 5.00 to 6.00 | 1000 to 10000 nM | 5.00 to 6.00 | 5.00 to 6.00 | > 7.00 | 6.00 to 7.00 | 6.00 to 7.00 | 6.00 to 7.00 | B (B represents 100-1000 nM) |
| Cn1cc2cc(-c3ccc4cc(C5CCNCC5)ccc4n3)c(O)cc2n1 [Compound 109] | 100 to 1000 nM | > 7.00 | > 7.00 | 100 to 1000 nM | > 7.00 | > 7.00 | > 7.00 | > 7.00 | > 7.00 | > 7.00 | B (B represents 100-1000 nM) |
| Cn1cc2cc(-c3ccc4c(F)c(C5CCNCC5)ccc4n3)c(O)cc2n1 [Compound 115] | 1000 to 10000 nM | 5.00 to 6.00 | 5.00 to 6.00 | 100 to 1000 nM | 6.00 to 7.00 | 6.00 to 7.00 | > 7.00 | > 7.00 | 6.00 to 7.00 | 6.00 to 7.00 | B (B represents 100-1000 nM) |
| CN1CCN(c2ccc3nc(-c4cc5cn(C)nc5cc4O)ccc3n2)CC1 [Compound 116] | 1000 to 10000 nM | 5.00 to 6.00 | 5.00 to 6.00 | 1000 to 10000 nM | 6.00 to 7.00 | 6.00 to 7.00 | > 7.00 | 5.00 to 6.00 | 5.00 to 6.00 | 5.00 to 6.00 | C (C represents 1000-9999 nM) |
| CC1CN(c2ccc3nc(-c4cc5cn(C)nc5cc4O)ccc3n2)CCN1 (centres unmarked) [Compound 117] | 1000 to 10000 nM | 5.00 to 6.00 | 5.00 to 6.00 | 100 to 1000 nM | 6.00 to 7.00 | 6.00 to 7.00 | > 7.00 | 6.00 to 7.00 | 6.00 to 7.00 | 5.00 to 6.00 | B (B represents 100-1000 nM) |
| CC1CN(c2ccc3nc(-c4cc5cn(C)nc5cc4O)ccc3n2)CCN1C (centres unmarked) [Compound 118] | 1000 to 10000 nM | 5.00 to 6.00 | 5.00 to 6.00 | 1000 to 10000 nM | 6.00 to 7.00 | 6.00 to 7.00 | > 7.00 | 6.00 to 7.00 | 5.00 to 6.00 | < 5.00 | C (C represents 1000-9999 nM) |
| CCC1CN(c2ccc3nc(-c4cc5cn(C)nc5cc4O)ccc3n2)CCN1 (centres unmarked) [Compound 119] | 1000 to 10000 nM | 6.00 to 7.00 | 6.00 to 7.00 | 100 to 1000 nM | 6.00 to 7.00 | 6.00 to 7.00 | > 7.00 | 6.00 to 7.00 | 6.00 to 7.00 | 6.00 to 7.00 | B (B represents 100-1000 nM) |
| Cn1cc2cc(-c3ccc4nc(N5CCNC(C)(C)C5)ccc4n3)c(O)cc2n1 [Compound 120] | 1000 to 10000 nM | 5.00 to 6.00 | 5.00 to 6.00 | 100 to 1000 nM | 6.00 to 7.00 | 6.00 to 7.00 | > 7.00 | 5.00 to 6.00 | 5.00 to 6.00 | 5.00 to 6.00 | B (B represents 100-1000 nM) |
| Cn1cc2cc(-c3ccc4nc(N5CCNC6(CC6)C5)ccc4n3)c(O)cc2n1 [Compound 121] | 1000 to 10000 nM | 5.00 to 6.00 | 5.00 to 6.00 | 100 to 1000 nM | 6.00 to 7.00 | 6.00 to 7.00 | 5.00 to 6.00 | 5.00 to 6.00 | 5.00 to 6.00 | 5.00 to 6.00 | C (C represents 1000-9999 nM) |
| Cn1cc2cc(-c3ccc4nc(N5CC6(CNC6)C5)ccc4n3)c(O)cc2n1 [Compound 124] | 100 to 1000 nM | > 7.00 | > 7.00 | 100 to 1000 nM | 6.00 to 7.00 | 6.00 to 7.00 | > 7.00 | 6.00 to 7.00 | > 7.00 | > 7.00 | B (B represents 100-1000 nM) |
| Cn1cc2cc(-c3ccc4nc(N5CCC(N6CCCC6)C5)ccc4n3)c(O)cc2n1 (centres unmarked) [Compound 125] | 100 to 1000 nM | 6.00 to 7.00 | 6.00 to 7.00 | < 100 nM | 6.00 to 7.00 | 6.00 to 7.00 | > 7.00 | 6.00 to 7.00 | 6.00 to 7.00 | 6.00 to 7.00 | B (B represents 100-1000 nM) |
